Source: patent US20260022142A1, “MACROCYCLIC IMMUNOMODULATORS” (Bristol-Myers Squibb Company, priority 2022, published 2026)
Bridge positions count the residues as written; N and C are the ends. Square brackets hold non-standard residues; d marks the D form. Peptide text beside a SMILES is read from it. * marks the point of attachment. Phe(4-COOH) = N[C@@H](Cc1ccc(C(=O)O)cc1)C(=O)O; Bip = N[C@@H](Cc1ccc(-c2ccccc2)cc1)C(=O)O; NH(CH2)14COOH = O=C(O)CCCCCCCCCCCCCCN*; Phe(3-Me) = Cc1cccc(C[C@H](N)C(=O)O)c1; NH(CH2)12COOH = O=C(O)CCCCCCCCCCCCN*; Val(3-OH) = CC(C)(O)[C@H](N)C(=O)O; 4Pal = N[C@@H](Cc1ccncc1)C(=O)O; Cha = N[C@@H](CC1CCCCC1)C(=O)O; Carboxymethyl = O=C(O)C*; Orn = NCCC[C@H](N)C(=O)O; Aun = NCCCCCCCCCCC(=O)O; Dab = NCC[C@H](N)C(=O)O; Nva = CCC[C@H](N)C(=O)O; Dap = NC[C@H](N)C(=O)O; AEEA = NCCOCCOCC(=O)O

Biological target: T1, PD-1/PD-L1 interaction (PE-labeled human PD-L1-Ig binding to Jurkat cell line over-expressing human PD-1) (Homo sapiens, UniProt Q15116)
T1 construct: expressed in transfected cells; host or cells: Jurkat
Assay: Jurkat-PD-1 Cell Binding High-Content Screening Assay (CBA)
Format: cell-based
Details: Jurkat cell line over-expressing human PD-1; PE-labeled PD-L1-Ig 20 nM final; read-out: Jurkat hPD1-PDL1 IC50
In short: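 Read-out is high-content imaging of cell-bound phycoerythrin-tagged PD-L1-Ig on fixed, Hoechst-counterstained Jurkat cells that over-express human PD-1. Compound exposure lasts 2 h at 37° C before the labeled ligand (20 nM final) is added for a further hour.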

T1 sequence (Q15116 25-288): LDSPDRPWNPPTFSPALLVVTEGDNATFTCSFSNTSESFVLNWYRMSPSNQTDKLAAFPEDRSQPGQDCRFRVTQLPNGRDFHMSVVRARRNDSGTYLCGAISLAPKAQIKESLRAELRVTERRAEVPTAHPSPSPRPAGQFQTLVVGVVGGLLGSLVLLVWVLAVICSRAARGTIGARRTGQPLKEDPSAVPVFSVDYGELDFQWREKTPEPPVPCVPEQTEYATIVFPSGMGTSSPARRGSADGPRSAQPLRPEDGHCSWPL

Row | Compound | IC50 [µM]
1 | Cc1cccc(C[C@@H]2NC(=O)[C@H](CC(=O)O)NC(=O)[C@H](Cc3ccc(OCC(=O)O)cc3)NC(=O)[C@H](CN)NC(=O)CSC[C@@H](C(=O)N[C@@H](CCCN)C(=O)NCCCCCCCCCCC(=O)O)NC(=O)[C@H](CCC(N)=O)NC(=O)[C@H](C(C)C)NC(=O)[C@H](CC3CCCCC3)NC(=O)[C@H](CCN)NC(=O)[C@@H](CC(C)C)NC(=O)[C@H](CCN)NC(=O)[C@H](Cc3ccc(OCC(=O)O)cc3)NC(=O)[C@H](Cc3ccc(-c4ccccc4)cc3)NC(=O)[C@H](Cc3ccc(OCC(=O)O)cc3)NC2=O)c1 [Compound 2857] ({CH2CO}-[Dap]Y(Carboxymethyl)D[Phe(3-Me)]Y(Carboxymethyl)[Bip]Y(Carboxymethyl)[Dab][dL][Dab][Cha]VQC[Orn][Aun]-OH; thioether N-14) | 0.035
2 | Cc1cccc(C[C@@H]2NC(=O)[C@H](CC(=O)O)NC(=O)[C@H](Cc3ccc(OCC(=O)O)cc3)NC(=O)[C@H](CN)NC(=O)CSC[C@@H](C(=O)N[C@@H](CCN)C(=O)NCCCCCCCCCCC(=O)O)NC(=O)[C@H](CCCN)NC(=O)[C@H](C(C)C)NC(=O)[C@H](CC3CCCCC3)NC(=O)[C@H](CCN)NC(=O)[C@@H](CC(C)C)NC(=O)[C@H](CCCN)NC(=O)[C@H](Cc3ccc(OCC(=O)O)cc3)NC(=O)[C@H](Cc3ccc(-c4ccccc4)cc3)NC(=O)[C@H](Cc3ccc(O)cc3)NC2=O)c1 [Compound 2858] ({CH2CO}-[Dap]Y(Carboxymethyl)D[Phe(3-Me)]Y[Bip]Y(Carboxymethyl)[Orn][dL][Dab][Cha]V[Orn]C[Dab][Aun]-OH; thioether N-14) | 0.0119
3 | Cc1cccc(C[C@@H]2NC(=O)[C@H](CC(=O)O)NC(=O)[C@H](Cc3ccc(OCC(=O)O)cc3)NC(=O)[C@H](CN)NC(=O)CSC[C@@H](C(=O)N[C@@H](CCN)C(=O)NCCOCCOCC(=O)NCCCCCCCCCCC(=O)O)NC(=O)[C@H](CCCN)NC(=O)[C@H](C(C)C)NC(=O)[C@H](CC3CCCCC3)NC(=O)[C@H](CCN)NC(=O)[C@@H](CC(C)C)NC(=O)[C@H](CCCN)NC(=O)[C@H](Cc3ccc(OCC(=O)O)cc3)NC(=O)[C@H](Cc3ccc(-c4ccccc4)cc3)NC(=O)[C@H](Cc3ccc(O)cc3)NC2=O)c1 [Compound 2859] ({CH2CO}-[Dap]Y(Carboxymethyl)D[Phe(3-Me)]Y[Bip]Y(Carboxymethyl)[Orn][dL][Dab][Cha]V[Orn]C[Dab][AEEA][Aun]-OH; thioether N-14) | 0.0078
4 | Cc1cccc(C[C@@H]2NC(=O)[C@H](CC(=O)O)NC(=O)[C@H](Cc3ccc(OCC(=O)O)cc3)NC(=O)[C@H](CN)NC(=O)CSC[C@@H](C(=O)N[C@@H](CCN)C(=O)NCCOCCOCC(=O)NCCCCCCCCCCC(=O)O)NC(=O)[C@H](CCCN)NC(=O)[C@H](C(C)C)NC(=O)[C@H](CC3CCCCC3)NC(=O)[C@H](CCN)NC(=O)[C@@H](CC(C)C)NC(=O)[C@H](CCCN)NC(=O)[C@H](Cc3ccc(OCC(=O)O)cc3)NC(=O)[C@H](Cc3ccc(-c4ccccc4)cc3)NC(=O)[C@H](Cc3ccc(OCC(=O)O)cc3)NC2=O)c1 [Compound 2860] ({CH2CO}-[Dap]Y(Carboxymethyl)D[Phe(3-Me)]Y(Carboxymethyl)[Bip]Y(Carboxymethyl)[Orn][dL][Dab][Cha]V[Orn]C[Dab][AEEA][Aun]-OH; thioether N-14) | 0.0112
5 | Cc1cccc(C[C@@H]2NC(=O)[C@H](CC(=O)O)NC(=O)[C@H](Cc3ccc(OCC(=O)O)cc3)NC(=O)[C@H](Cc3ccncc3)NC(=O)CSC[C@@H](C(=O)N[C@@H](CCN)C(=O)NCCOCCOCC(=O)NCCCCCCCCCCC(=O)O)NC(=O)[C@H](CO)NC(=O)[C@H](C(C)(C)O)NC(=O)[C@H](CC3CCCCC3)NC(=O)[C@H](CCN)NC(=O)[C@@H](CC(C)C)NC(=O)[C@H](CCCN)NC(=O)[C@H](Cc3ccc(C(=O)O)cc3)NC(=O)[C@H](Cc3ccc(-c4ccccc4)cc3)NC(=O)[C@H](Cc3ccc(C(=O)O)cc3)NC2=O)c1 [Compound 2862] ({CH2CO}-[4Pal]Y(Carboxymethyl)D[Phe(3-Me)][Phe(4-COOH)][Bip][Phe(4-COOH)][Orn][dL][Dab][Cha][Val(3-OH)]SC[Dab][AEEA][Aun]-OH; thioether N-14) | 0.228
6 | Cc1cccc(C[C@@H]2NC(=O)[C@H](CC(=O)O)NC(=O)[C@H](Cc3ccc(OCC(=O)O)cc3)NC(=O)[C@H](CCCNC(=N)N)NC(=O)CSC[C@@H](C(=O)N[C@@H](CCN)C(=O)NCCCCCCCCCCC(=O)O)NC(=O)[C@H](CCC(=O)O)NC(=O)[C@H](C(C)(C)O)NC(=O)[C@H](CC3CCCCC3)NC(=O)[C@H](CCN)NC(=O)[C@@H](CC(C)C)NC(=O)[C@H](CCCN)NC(=O)[C@H](Cc3ccc(OCC(=O)O)cc3)NC(=O)[C@H](Cc3ccc(-c4ccccc4)cc3)NC(=O)[C@H](Cc3ccc(OCC(=O)O)cc3)NC2=O)c1 [Compound 2863] ({CH2CO}-RY(Carboxymethyl)D[Phe(3-Me)]Y(Carboxymethyl)[Bip]Y(Carboxymethyl)[Orn][dL][Dab][Cha][Val(3-OH)]EC[Dab][Aun]-OH; thioether N-14) | 0.0087
7 | Cc1cccc(C[C@@H]2NC(=O)[C@H](CC(=O)O)NC(=O)[C@H](Cc3ccc(OCC(=O)O)cc3)NC(=O)[C@H](CCCNC(=N)N)NC(=O)CSC[C@@H](C(=O)N[C@@H](CCN)C(=O)NCCCCCCCCCCC(=O)O)NC(=O)[C@H](CC(=O)O)NC(=O)[C@H](C(C)(C)O)NC(=O)[C@H](CC3CCCCC3)NC(=O)[C@H](CCN)NC(=O)[C@@H](CC(C)C)NC(=O)[C@H](CCCN)NC(=O)[C@H](Cc3ccc(OCC(=O)O)cc3)NC(=O)[C@H](Cc3ccc(-c4ccccc4)cc3)NC(=O)[C@H](Cc3ccc(OCC(=O)O)cc3)NC2=O)c1 [Compound 2864] ({CH2CO}-RY(Carboxymethyl)D[Phe(3-Me)]Y(Carboxymethyl)[Bip]Y(Carboxymethyl)[Orn][dL][Dab][Cha][Val(3-OH)]DC[Dab][Aun]-OH; thioether N-14) | 0.0033
8 | CCC[C@@H]1NC(=O)CSC[C@@H](C(=O)N[C@@H](CCN)C(=O)NCCOCCOCC(=O)NCCOCCOCC(=O)NCCCCCCCCCCCCCCC(=O)O)NC(=O)[C@H](CO)NC(=O)[C@H](C(C)(C)O)NC(=O)[C@H](CC2CCCCC2)NC(=O)[C@H](CCN)NC(=O)[C@@H](CC(C)C)NC(=O)[C@H](CCCN)NC(=O)[C@H](Cc2ccc(OCC(=O)O)cc2)NC(=O)[C@H](Cc2ccc(-c3ccccc3)cc2)NC(=O)[C@H](Cc2ccc(OCC(=O)O)cc2)NC(=O)[C@H](Cc2cccc(C)c2)NC(=O)[C@H](CC(=O)O)NC(=O)[C@H](Cc2ccc(OCC(=O)O)cc2)NC1=O [Compound 2866] ({CH2CO}-[Nva]Y(Carboxymethyl)D[Phe(3-Me)]Y(Carboxymethyl)[Bip]Y(Carboxymethyl)[Orn][dL][Dab][Cha][Val(3-OH)]SC[Dab][AEEA][AEEA]-{NH(CH2)14COOH}; thioether N-14) | 0.101
9 | CCC[C@@H]1NC(=O)CSC[C@@H](C(=O)N[C@@H](CCN)C(=O)NCCOCCOCC(=O)NCCCCCCCCCCCCC(=O)O)NC(=O)[C@H](CO)NC(=O)[C@H](C(C)(C)O)NC(=O)[C@H](CC2CCCCC2)NC(=O)[C@H](CCN)NC(=O)[C@@H](CC(C)C)NC(=O)[C@H](CCCN)NC(=O)[C@H](Cc2ccc(OCC(=O)O)cc2)NC(=O)[C@H](Cc2ccc(-c3ccccc3)cc2)NC(=O)[C@H](Cc2ccc(OCC(=O)O)cc2)NC(=O)[C@H](Cc2cccc(C)c2)NC(=O)[C@H](CC(=O)O)NC(=O)[C@H](Cc2ccc(OCC(=O)O)cc2)NC1=O [Compound 2867] ({CH2CO}-[Nva]Y(Carboxymethyl)D[Phe(3-Me)]Y(Carboxymethyl)[Bip]Y(Carboxymethyl)[Orn][dL][Dab][Cha][Val(3-OH)]SC[Dab][AEEA]-{NH(CH2)12COOH}; thioether N-14) | 0.0111
10 | CCC[C@@H]1NC(=O)CSC[C@@H](C(=O)N[C@@H](CCN)C(=O)NCCOCCOCC(=O)NCCCCCCCCCCCCCCC(=O)O)NC(=O)[C@H](CO)NC(=O)[C@H](C(C)(C)O)NC(=O)[C@H](CC2CCCCC2)NC(=O)[C@H](CCN)NC(=O)[C@@H](CC(C)C)NC(=O)[C@H](CCCN)NC(=O)[C@H](Cc2ccc(OCC(=O)O)cc2)NC(=O)[C@H](Cc2ccc(-c3ccccc3)cc2)NC(=O)[C@H](Cc2ccc(OCC(=O)O)cc2)NC(=O)[C@H](Cc2cccc(C)c2)NC(=O)[C@H](CC(=O)O)NC(=O)[C@H](Cc2ccc(OCC(=O)O)cc2)NC1=O [Compound 2868] ({CH2CO}-[Nva]Y(Carboxymethyl)D[Phe(3-Me)]Y(Carboxymethyl)[Bip]Y(Carboxymethyl)[Orn][dL][Dab][Cha][Val(3-OH)]SC[Dab][AEEA]-{NH(CH2)14COOH}; thioether N-14) | 0.467
11 | Cc1cccc(C[C@@H]2NC(=O)[C@H](CC(=O)O)NC(=O)[C@H](Cc3ccc(OCC(=O)O)cc3)NC(=O)[C@H](CCN)NC(=O)CSC[C@@H](C(=O)N[C@@H](CCN)C(=O)NCCOCCOCC(=O)NCCCCCCCCCCCCC(=O)O)NC(=O)[C@H](Cc3c[nH]cn3)NC(=O)[C@H](C(C)(C)O)NC(=O)[C@H](CC3CCCCC3)NC(=O)[C@H](CCN)NC(=O)[C@@H](CC(C)C)NC(=O)[C@H](CCCN)NC(=O)[C@H](Cc3ccc(OCC(=O)O)cc3)NC(=O)[C@H](Cc3ccc(-c4ccccc4)cc3)NC(=O)[C@H](Cc3ccc(OCC(=O)O)cc3)NC2=O)c1 [Compound 2871] ({CH2CO}-[Dab]Y(Carboxymethyl)D[Phe(3-Me)]Y(Carboxymethyl)[Bip]Y(Carboxymethyl)[Orn][dL][Dab][Cha][Val(3-OH)]HC[Dab][AEEA]-{NH(CH2)12COOH}; thioether N-14) | 0.0169
12 | Cc1cccc(C[C@@H]2NC(=O)[C@H](CC(=O)O)NC(=O)[C@H](Cc3ccc(OCC(=O)O)cc3)NC(=O)[C@H](CCN)NC(=O)CSC[C@@H](C(=O)N[C@@H](CCN)C(=O)NCCOCCOCC(=O)NCCCCCCCCCCCCCCC(=O)O)NC(=O)[C@H](Cc3c[nH]cn3)NC(=O)[C@H](C(C)(C)O)NC(=O)[C@H](CC3CCCCC3)NC(=O)[C@H](CCN)NC(=O)[C@@H](CC(C)C)NC(=O)[C@H](CCCN)NC(=O)[C@H](Cc3ccc(OCC(=O)O)cc3)NC(=O)[C@H](Cc3ccc(-c4ccccc4)cc3)NC(=O)[C@H](Cc3ccc(OCC(=O)O)cc3)NC2=O)c1 [Compound 2872] ({CH2CO}-[Dab]Y(Carboxymethyl)D[Phe(3-Me)]Y(Carboxymethyl)[Bip]Y(Carboxymethyl)[Orn][dL][Dab][Cha][Val(3-OH)]HC[Dab][AEEA]-{NH(CH2)14COOH}; thioether N-14) | 0.0838
